# Test results taken from PMC12040169 (PLOS Biology, 2025).
# Assay: in vitro
# Details: human, hela cells, % viability
row,Compound,"viability at 28.5 h, 10 µM [%]"
1,O=C(O)CCN1CCC2(CCN(C(=O)c3cc(F)c(F)cc3F)C2)C1 (stereo not shown) [CBK137123],86.8
2,c1ccc(N2CCN(c3cccc(-c4ccc5c(c4)OCO5)n3)CC2)nc1 [CBK036851],104
3,CN(C(=O)CCc1nc2sc3c(c2c(=O)[nH]1)CCCC3)C1CCCCC1 [CBK306075],88.2
4,COC(=O)CNC(c1cc(Br)ccc1N)c1ccccc1Cl (stereo not shown) [CBK262605],89
5,CCNC(=O)N1CC2(CCN(CCCCC3NC(=O)NC3=O)CC2)c2ccccc21 (stereo not shown) [CBK126707],92.2
6,CCc1noc(C)c1C(=O)N1CCC(NC)C1 (stereo not shown) [CBK304299C],100
7,O=C(CSc1nnnn1CC1CCCO1)N1CC=C(c2ccccc2)CC1 (stereo not shown) [CBK295160],82
8,NS(=O)(=O)c1ccc(/N=C/c2cccc(O)c2O)cc1 [CBK261533],87.8
9,CC(C)(C)OC(=O)N1CCC(c2cc(=O)n3c(n2)CCCCC3)C1 (stereo not shown) [CBK283415],88.4
10,CCc1nc2c(OCCOC)cccn2c1N(CCOC)C(C)=O [CBK147845],97.4
11,CCOc1cccc(NC(=O)/C(C#N)=C\c2cc(C)n(-c3cccc(C(=O)O)c3)c2C)c1 [CBK263186],115
12,O=C(CN(c1ccccc1F)S(=O)(=O)c1ccccc1)Nc1ccccc1C(=O)O [CBK263999],97.1
13,Cc1cccc2c(C(=O)NCc3ccc(S(N)(=O)=O)cc3)cc(-c3ccccc3Cl)nc12 [CBK267743],93
14,O=C(Nc1ccncc1)OCCc1cccnc1 [CBK200125],94.2
15,COc1ccc(C(=O)Nc2nc(-c3nc4ccccc4s3)cs2)cc1 [CBK287563],102
16,Cn1cc(NC(=O)CCn2c(C(F)(F)F)cc3cccnc32)cn1 [CBK284866],92.5
17,CN(C)S(=O)(=O)N(CC(=O)NCc1ccccc1Cl)c1ccccc1 [CBK269081],103
18,O=C(c1ccccc1O)N1CCN(Cc2cc(=O)n3ccsc3n2)CC1 [CBK306096],90.2
19,NC1CCC(N(CCc2ccccc2)C(=O)Nc2ccc3c(c2)OCO3)CC1 (stereo not shown) [CBK000480C],83.1
20,Cn1nc(C(=O)N2Cc3cnn(Cc4ccc(F)cc4)c3C2)ccc1=O [CBK306855],83
21,CC(=O)c1cc2c(N)c(/C(N)=N/C#N)sc2nc1C [CBK021202],70.7
22,CCOC(=O)c1ccccc1NS(=O)(=O)c1ccc(C(F)(F)F)cc1[N+](=O)[O-] [CBK050584],96.2

row,Compound,"viability at 28.5 h, 10 µM [%]"
1,Cc1ccc(CN(CCCn2ccnc2)Cc2ccccn2)o1 [CBK283102],106
2,CC(=O)C1=C(O)C(=O)N(CCN2CCNCC2)C1c1cccc([N+](=O)[O-])c1 (stereo not shown) [CBK263320],101
3,COc1ccc(NC(=O)c2csc(Nc3ccccc3)n2)cc1OC [CBK287840],83.7
4,CC(C)(C)OC(=O)N1CCN(c2ccc(N)cn2)CC1 [CBK003463],95.5
5,CCN(CC)C(=O)C1CCCN(C(=O)NCCOC)C1 (stereo not shown) [CBK156129],99.2
6,Nc1cccc(-c2cncc(Nc3ccccc3)n2)c1 [CBK065265],96.2
7,CCCn1c(SCC(=O)NC2CCN(CC)CC2)nc2cc(Cl)ccc21 [CBK305027],104
8,O=C(NCC(c1ccccc1)c1ccccc1)N1CCN(Cc2ccccc2)CC1 [CBK155651],83.9
9,CC(=O)Nc1ccc(-c2ccc(C(=O)N3CCN(C(=O)c4ccco4)CC3)cn2)cc1 [CBK160186],85.8
10,CC(C)c1ccc(NC(=O)O[C@@H]2CO[C@H]3[C@@H]2OC[C@@H]3NC(=O)c2cncnc2)cc1 [CBK289480],105
11,CCNC(=O)N1CC2(CCN(Cc3csc(C)n3)CC2)c2ccccc21 [CBK126712],103
12,Cn1cc(-c2ncc(OCCOc3ccccc3)nc2N)cn1 [CBK145171],108
13,CCN1CCOC(CNc2ncnc3c2CCC3)C1 (stereo not shown) [CBK304811],106
14,CCOc1ccc(N(CC(=O)O)S(=O)(=O)c2ccc(SC)cc2)cc1 [CBK263764],103
15,COc1ccc(C(=O)N2CCN(CC(=O)N3CCOCC3)CC2)cc1 [CBK133150],108
16,CCOc1cccc2cc(C(=O)N3CCN(Cc4ccccc4)CC3)c(=O)oc12 [CBK270259C],74.3
17,Cc1nc2ccc(C(=O)N(C)CCN(C)C)cn2c1N(C)C(=O)c1cccs1 [CBK146528],120
18,O=C(O)c1sc2ncccc2c1NS(=O)(=O)c1ccc(C(F)(F)F)cc1[N+](=O)[O-] [CBK050647],118
19,COC(=O)c1cccn2cc(CN(CC#N)C3CC3)nc12 [CBK305821],105
20,CCOC(=O)C1C2CCC3(CC(=O)c4cc(Cl)ccc4O3)C21 (stereo not shown) [CBK284858],107
21,CCOC(=O)N1CCC(NCC(C)(C)CN(C)C)CC1 [CBK028516],96.2
22,CN(CCCc1nc(-c2ccc(Cl)cc2)no1)S(=O)(=O)c1ccc([N+](=O)[O-])cc1 [CBK267365],96

row,Compound,"viability at 28.5 h, 10 µM [%]"
1,O=C(O)CCc1ccc(-c2cn3ccnc3c(Nc3ccc(Br)cc3)n2)cc1 [CBK038058],113
2,Cc1cc(C)c(NC(=O)CSc2nnc(Cc3ccccc3)n2C)c(C)c1 [CBK265990],110
3,O=C(O)Cc1sc(-c2ccc3c(c2)OCO3)nc1-c1ccccc1 [CBK200114],87.3
4,Cc1ccc(S(=O)(=O)NCC(=O)N2CCN(c3ccc(Cl)cc3)CC2)cc1 [CBK091315],93.3
5,CCC1(c2ccccc2)OCC(C2CCCCN2)O1 (stereo not shown) [CBK023284C],85.7
6,O=C(NC1CCCC1)c1ccnc2ccccc12 [CBK200237],92.6
7,O=S(=O)(Nc1ccc(N2CCNCC2)c2ccccc12)c1ccc(Br)cc1F [CBK200014C],95.4
8,Cc1ccc(COCSc2nc3ccccc3n2CC(O)CO)cc1C (stereo not shown) [CBK021195],85.1
9,COc1ccc(N2CCN(c3nc(NCCO)nc(N4CCOCC4)n3)CC2)cc1 [CBK265413],99.3
10,Cc1c(C(=O)C2=C(O)C(=O)N(CCCN(C)C)C2c2cccnc2)cnn1-c1ccccc1 (stereo not shown) [CBK269312],93.8
11,O=S(=O)(c1ccc(-c2csc(-c3cccnc3)n2)cc1)N1CCCCCC1 [CBK265502],106
12,Cc1nn(C)c(C)c1-c1ccnc(NCCC2(O)CCN(C)CC2)n1 [CBK307659],86.1
13,O=C(NC1CCCCC1)[C@H]1CN2CCC1C[C@@H]2Cn1cc(CO)nn1 (stereo partly shown) [CBK289086],102
14,OCCN(Cc1cccnc1)Cc1cccn1-c1ccc(F)cc1F [CBK283042],90.4
15,Nc1cc(N)nc(SCC(=O)Nc2ccc(Oc3ccccc3)cc2)n1 [CBK266749],95
16,O=C(Cc1cccs1)NCCc1c[nH]cn1 [CBK269805],93.2
17,CN(C)C(=O)c1ccc(Cn2nc(NC(=O)OCc3ccccc3)c3ccccc32)cc1 [CBK048578],89.6
18,O=C(CC(CN1CCN(Cc2ccccn2)CC1)C(=O)O)NCc1ccccc1 (stereo not shown) [CBK286865],81.2
19,Cc1csc(Sc2nc3ccccc3nc2C(F)(F)F)n1 [CBK093775],94.9
20,CCCn1c(=N)n(CCOc2cccc(C)c2)c2ccccc21 [CBK264746B],89.2
